The text below walks through data of publication PMC5636616, “Studies on the Interaction of the Histone Demethylase KDM5B with Tricarboxylic Acid Cycle Intermediates” (Journal of Molecular Biology, 2017).

By IC50 is commonly meant the concentration at which inhibition is half-maximal. In general, Km refers to the substrate concentration at which the rate is half of its maximum. A word on the inhibition: it is the change of the read-out against control, counted positive when it falls. Broadly, the Ki is a dissociation constant, usually derived from enzyme kinetics or from competition with a known ligand.

Entries after “also recorded” stand apart in the source; their conditions may differ. Like-named read-outs stand apart in the source and are kept apart here.

The test system of data set [1] is T1, over-expressed KDM5B in U2-OS cells.
T1 construct: expressed in transfected cells; host or cells: U2-OS osteosarcoma cells, transient transfection with pCDNA5-FRT-TO-3FLAG vector
The data set is described as follows: Immunofluorescence assay of H3K4me3 demethylation in U2-OS cells overexpressing KDM5B. The format is cell-based, human. The note with it: for inhibition of KDM5B-mediated H3K4me3 demethylation (IF): U2-OS cells overexpressing Flag-tagged WT KDM5B, 24 h treatment, esters dosed up to 5–10 mM. The procedure: EC50 curves for cells overexpressing Flag-tagged KDM5B. […] Results for dimethyl-2OG (a), dimethyl-succinate (b), dimethyl-D-2HG (c), dimethyl-L-2HG (d), octyl-D-2HG (e), octyl-L-2HG (f), and KDOAM-25 (g). Dashed lines represent IF levels in non-inhibitor controls.
The cellular effects of dimethyl ester precursors of TCA cycle-related metabolites as potential inhibitors of H3K4me3 demethylation were then assessed. We used an established immunofluorescence (IF) procedure with ectopically overexpressed wild-type KDM5B (WT KDM5B) in U2-OS cells and anti-H3K4me3 antibody monitoring for changes in H3K4me3 methylation levels. […] Cells with overexpressed KDM5B were treated with different concentrations of the TCA cycle-related pro-drug esters (previously established as cell permeable in other cell-based studies), [51], [52], [53], [54] for 24 h, the H3K4me3 levels were then analyzed in the transfected cells. The reported KDM5B inhibitor KDOAM-25 ((2)-((((2)-(((2)-(dimethylamino)ethyl)(ethyl)amino)-(2)-oxoethyl)amino)methyl)isonicotinamide) was used as a positive control for inhibition, [55].
Immunofluorescent cell-based assays were performed as reported. The human U2-OS osteosarcoma cells were cultured as a monolayer in Dulbecco's modified Eagle's medium (Invitrogen) supplemented with 10% heat-inactivated fetal bovine serum (Life Technologies) and 1% Glutamax. […] Cells were transiently transfected using cDNA and Lipofectamine 3000 (Life Technologies). Four hours after transfection, the cells were subjected to treatment with serial dilutions of compound. After 24 h, the cells were fixed with 4% formaldehyde and stained with anti-Flag antibody (Sigma F3165), an anti-methylated histone antibody (H3K4me3 DiagenodeC15410003). The cells were then stained with secondary antibodies [Alexa Fluor 488 and Alexa Fluor 568-labeled (Life Technologies)] and 4’,6-diamidino-2-phenylindole. Image acquisition was conducted using Operetta High Content Imaging System (PerkinElmer), and image analysis was performed using the Columbus software (PerkinElmer). A minimum threshold for anti-Flag intensity was set to ensure that only cells highly producing the demethylase were analyzed.

Data set [2] deals with KDM2A. The arrangement: method as in PMID 21460794. The note with it: cited from earlier work; for IC50: enzyme concentration 2 μM.
The test system of data set [3] is TET2. The note with it: cited from earlier work.
The subject of data set [4] is BBOX. The note with it: cited from earlier work; for IC50: enzyme concentration 0.025 μM.
The subject of data set [5] is U2-OS cells. The data set is described as follows: Toxicity to U2-OS cells in the cellular assay. The format is cell-based, human. The note with it: data not shown.
In data set [6] the target is T2, KDM5B (Homo sapiens, UniProt Q9UGL1).
T2 construct: purified recombinant KDM5B (produced in Sf9 insect cells, M1-R822); made in house; host or cells: Sf9 insect cells
T2 sequence (Q9UGL1 1-822): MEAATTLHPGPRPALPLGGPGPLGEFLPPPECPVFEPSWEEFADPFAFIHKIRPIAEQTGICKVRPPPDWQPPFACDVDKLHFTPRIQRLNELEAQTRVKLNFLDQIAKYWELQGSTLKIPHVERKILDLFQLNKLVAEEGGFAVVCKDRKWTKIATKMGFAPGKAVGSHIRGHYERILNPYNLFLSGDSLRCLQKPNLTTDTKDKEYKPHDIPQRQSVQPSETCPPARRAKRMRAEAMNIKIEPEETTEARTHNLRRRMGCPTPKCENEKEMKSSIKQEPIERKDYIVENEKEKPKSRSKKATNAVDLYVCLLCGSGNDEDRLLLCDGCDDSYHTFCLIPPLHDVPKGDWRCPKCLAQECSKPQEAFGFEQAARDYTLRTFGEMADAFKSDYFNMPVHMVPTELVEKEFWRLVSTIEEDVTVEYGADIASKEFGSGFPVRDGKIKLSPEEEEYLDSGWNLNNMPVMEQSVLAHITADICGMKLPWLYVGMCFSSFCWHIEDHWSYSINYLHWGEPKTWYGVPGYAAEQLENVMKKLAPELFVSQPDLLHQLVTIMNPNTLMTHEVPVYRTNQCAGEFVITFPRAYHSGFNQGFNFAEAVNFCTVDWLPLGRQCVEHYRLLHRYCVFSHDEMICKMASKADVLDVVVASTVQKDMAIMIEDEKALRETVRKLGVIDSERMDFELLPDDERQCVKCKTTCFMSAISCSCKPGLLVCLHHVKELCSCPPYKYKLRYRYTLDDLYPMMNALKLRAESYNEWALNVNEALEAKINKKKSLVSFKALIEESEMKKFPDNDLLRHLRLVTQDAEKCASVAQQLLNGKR
The note with it: FDH-coupled assay, truncated KDM5B, cited from earlier work.

The test system of data set [7] is KDM4E. The conditions noted are these: cited from earlier work; for IC50: enzyme concentration 2 μM.
The subject of data set [8] is TET1. The note with it: cited from earlier work.
Data set [9] relates to PHD2. The conditions noted are these: cited from earlier work.
Data set [10] concerns KDM4A. Details: method as in PMID 21460794. The note with it: read-out: Km^app(2OG); cited from earlier work.
Data set [11] relates to FIH. The note with it: cited from earlier work.
In data set [12] the test system is ABH2. Details: method as in PMID 21460794. The note with it: read-out: Km^app(2OG); cited from earlier work.
For data set [13], the system named is KDM4C. The arrangement: method as in PMID 21460794. The conditions noted are these: read-out: Km^app(2OG); cited from earlier work.
The target in data set [14] is T2, KDM5B. The data set can be described thus: KDM5B inhibition assay, MALDI-TOF-MS (IC50). The format is biochemical.
The target in data set [15] is T2, KDM5B. The data set can be described thus: KDM5B kinetic assays, MALDI-TOF-MS (Km, Ki with respect to 2OG). The format is biochemical. The conditions noted are these: for mode of inhibition: with respect to 2OG.
The subject of data set [16] is isolated KDM5B. Details: method as in PMID 28262558. The conditions noted are these: AlphaScreen assay; cited from earlier work. (In general: Alpha assays give light when donor and acceptor beads are brought close together.)
Where [17] appears, read: 0.6 μM KDM5B, 3 μM 2OG, 5 μM H3K4me2(1–21), 10 μM Fe(II), 500 μM L-ascorbate, pH 7.5, errors 95% confidence intervals.

For `COC(=O)CCC(=O)OC` [dimethyl-succinate, dimethylsuccinate], in data set [1], the “inhibition of KDM5B-mediated H3K4me3 demethylation (IF)” value (“inhibition … (IF)” for short) is listed as “do not inhibit”.
Same read-out and setting: under `COC(=O)CC[C@H](O)C(=O)OC` [dimethyl-L-2HG] stands “do not inhibit; also recorded: no inhibition of KDM5B activity was observed”.
`O=C(O)CC[C@@H](O)C(=O)O` [D-2HG, D-2-hydroxyglutarate]: the IC50 was 106 ± 22 µM in [2], 5000 µM in data set [3] and 13200 µM in data set [4].
`COC(=O)CC[C@@H](O)C(=O)OC` [dimethyl-D-2HG]: the “inhibition … (IF)” value in data set [1] is “do not inhibit; also recorded: no inhibition of KDM5B activity was observed”.
For `COC(=O)/C=C/C(=O)OC` [dimethylfumarate], the “inhibition … (IF)” value in data set [1] is listed as “no inhibition of KDM5B activity was observed”; in data set [1] (listed as Dimethylfumarate) it was “did not show any inhibition at lower concentrations”. The toxic concentration result in data set [5] was “higher than 400 μM”.
`O=C(O)CCC(=O)C(=O)O` [2OG, 2-oxoglutarate]: the Km in [6] (read-out: Km^app(2OG)) was 6 µM; in data set [7] (read-out: Km^app(2OG)) it was 13.2 µM; in data set [2] (read-out: Km^app(2OG)), 12.5 µM; in data set [8] (read-out: Km^app(2OG)) it was 55 ± 20 µM; in [9] (read-out: Km^app(2OG)), 13 ± 2 µM; in data set [3] (read-out: Km^app(2OG)), 60 ± 15 µM. Also, the Km is 470 µM in [4] (read-out: Km^app(2OG)); 6 µM in [10]; 110 ± 20 µM in data set [11] (read-out: Km^app(2OG)); 10 µM in data set [12]; 4 µM in data set [13].
In the case of `O=C(O)CC(=O)C(=O)O` [Oxaloacetate], the IC50 in data set [14] (read-out: IC50) was found to be 15 ± 10 µM. Moreover, the “Vm^app” value in [15] (in presence of 15 μM oxaloacetate) was determined as 0.0066 µM/s; in data set [15] (in presence of 50 μM oxaloacetate) it was 0.0070 µM/s; in data set [15] (in presence of 100 μM oxaloacetate) it was 0.0069 µM/s. In data set [15], this compound returned a mode of inhibition of 2OG competitive manner.
`CCN(CCN(C)C)C(=O)CNCc1cc(C(N)=O)ccn1` [KDOAM-25, (2)-((((2)-(((2)-(dimethylamino)ethyl)(ethyl)amino)-(2)-oxoethyl)amino)methyl)isonicotinamide]: the “inhibition … (IF)” value in data set [1] is “manifested the expected levels of inhibition; also recorded: observe inhibition”. Also, the “compound concentration at which H3K4me3 fluorescence reaches levels of KDM5B Mut” value in data set [1] (U2-OS cells overexpressing WT KDM5B, 24 h) worked out at 1 mM. Besides, in [16], the IC50 is 0.019 µM.
As to `O=C(O)CC[C@H](O)C(=O)O` [L-2HG, L-2-hydroxyglutarate], the IC50 in data set [2] was 48 ± 15 µM; in data set [8], 1000 µM; in [3] it was 1600 µM; in data set [4], 142 ± 30 µM; in data set [11] (enzyme concentration 1 μM) it was 189 ± 34 µM.
Regarding `CC(=O)C(=O)O` [Pyruvate, pyruvate], the IC50 result is “very weak KDM5B inhibitor” in data set [14] (setting [17]) and 703 ± 26 µM in data set [14] (read-out: IC50).
For `O=C(O)CC(O)(CC(=O)O)C(=O)O` [Citrate], the IC50 entry in [14] (setting [17]) was “Inactive”; in data set [14] (read-out: IC50), over 1000 µM. Further, the inhibition at 1000 µM in data set [14] (read-out: inhibition at 1 mM) was determined as 18%.
For “H3K4me2(1–21): 21-mer histone H3 peptide fragment dimethylated at lysine-4, KDM5B substrate [reference compound]”, the Michaelis constant (Km) in [6] (read-out: Km^app for H3K4me2(1–21)) was 0.85 µM; in data set [15] (KDM5B(1–822), 10 μM 2OG, read-out: Km^app(H3K4me2(1–21))) it was about 0.5 µM.
As to `COC(=O)CCC(=O)C(=O)OC` [dimethyl-2OG, Dimethyl-2-oxoglutarate], in data set [1], the “inhibition … (IF)” value is “do not inhibit; also recorded: no inhibition of KDM5B activity was observed”. The “change in H3K4me3 levels / KDM5B activity in response to compound” value in data set [1] (U2-OS cells overexpressing KDM5B, increasing concentrations, 24 h) is recorded as “No decrease in the H3K4me3 levels was observed; also recorded: did not show any effect”.
For `O=C(O)CCC(=O)O` [Succinate, succinate], the 50% inhibitory concentration (IC50) in data set [14] (read-out: IC50) is 62 ± 19 µM; in data set [7], 320 µM; in data set [8], 540 ± 100 µM; in [9], 19 µM; in data set [3], 570 ± 190 µM; in data set [11] it was over 1000 µM. For the same compound, in data set [15] (competitive inhibition model, shared/global fit, read-out: Ki (best-fit value, GraphPad Prism global fit)), the inhibition constant (Ki) amounted to 26.8 µM. Further, the “Vm^app” value in data set [15] (in presence of 30 μM succinate) was found to be 0.0044 µM/s; in data set [15] (in presence of 100 μM succinate) it was 0.0046 µM/s; in data set [15] (in presence of 300 μM succinate) it was 0.0046 µM/s. Besides, the mode of inhibition in [15] amounted to 2OG competitive manner.
Regarding `O=C(O)CC(O)C(=O)O` (centres unmarked) [Malate, malate], the IC50 in [14] (read-out: IC50) was determined as 127 ± 72 µM.
With `CCCCCCCCOC(=O)[C@H](O)CCC(=O)O` [octyl-D-2HG], the “inhibition … (IF)” value in [1] is reported as “do not inhibit; also recorded: no inhibition of KDM5B activity was observed”.
Regarding `O=C(O)/C=C/C(=O)O` [Fumarate], the IC50 is 210 ± 80 µM in data set [14]; 2.3 µM in data set [7]; 390 ± 160 µM in data set [8]; 3 µM in data set [9]; 400 ± 70 µM in data set [3]; over 1000 µM in data set [11].
For the compound `CCCCCCCCOC(=O)[C@@H](O)CCC(=O)O` [octyl-L-2HG], the “inhibition … (IF)” value in data set [1] is listed as “do not inhibit; also recorded: no inhibition of KDM5B activity was observed”.
